Measurements as given in patent publication US20240366807A1, “RADIOFLUORINATED AGENTS FOR PET IMAGING SELECTIVELY TARGETING FIBROBLAST ACTIVATION PROTEIN” (Trustees of tufts college, priority 2021, published 2024).
Like-named read-outs stand apart in the source and are kept apart here.

Key:
recombinant human FAP = recombinant human FAP (Homo sapiens (Human), UniProt Q12884); experiment: In vitro enzyme IC50 assay, FAP; format: biochemical; settings: for IC50: read-out: FAP Inhibition (IC50)
Source text: (§1) The peptide libraries XPYSWS-NH2, Ac-XPYSWS-NH2, GXYSWS-NH2, and Ac-GXYSWS-NH2, where X represents all natural amino acids except cysteine were synthesized by the Tufts University Core Facility. The DPPIV enzyme used for the specificity studies was previously purified by our laboratory at Tufts University from human placenta, and the purified human FAP enzyme used for these studies was kindly provided by Syrxx, Inc. For the in vitro IC50 determination assays, recombinant human DPPIV, DPP9, FAP, and PREP were purchased from R&D Systems, and DPP8 was from Biomol International. Buffer systems used were A (25 mM Tris, pH 8.0), B (50 mM Tris, pH 7.5), C (50 mM Tris, 140 mM NaCl, pH 7.5), D (25 mM Tris, 250 mM NaCl, pH 7.5), and E (20 mM Tris, 20 mM KCl, pH 7.4).
(§2) In Vitro Enzyme IC50 Assays
(§3) Enzymatic activity of DPPIV, DPP8, DPP9, FAP, and PREP was measured at 25° C. on a Molecular Devices M2^e multidetection microtiter plate reader, monitoring the fluorescence at an excitation wavelength of 380 nm and an emission wavelength of 460 nm. The substrate was either H-Gly-Pro-AMC for the DPPIV, DPP8, and DPP9 assays or Z-Gly-Pro-AMC for the FAP and PREP assays.
(§4) A (DPPIV and DPP9), buffer B (DPP8), buffer C (FAP), or buffer D (PREP) and a suitable amount of inhibitor (ranging between 10^−4 and 10^−11M) in a total volume of 210 μL. The final enzyme concentrations were 0.1, 0.8, 0.4, 1.2, and 0.6 nM for DPPIV, DPP8, DPP9,
(§5) FAP, and PREP, respectively. […] Those prepared in pH 2.0 solution were preincubated at 25° C. for 4 h prior to dilution. Immediately prior to the commencement of the experiment, the 100 mM stocks were further diluted to 10^−3M in the appropriate assay buffer, from which 1:10 serial dilutions were prepared. All inhibitors were tested in triplicate.

recombinant human PREP = recombinant human PREP (Homo sapiens (Human), UniProt P48147); experiment: In vitro enzyme IC50 assay, PREP; format: biochemical; settings: read-out: PREP Inhibition (IC50)
Sequence of recombinant human PREP (P48147 whole entry): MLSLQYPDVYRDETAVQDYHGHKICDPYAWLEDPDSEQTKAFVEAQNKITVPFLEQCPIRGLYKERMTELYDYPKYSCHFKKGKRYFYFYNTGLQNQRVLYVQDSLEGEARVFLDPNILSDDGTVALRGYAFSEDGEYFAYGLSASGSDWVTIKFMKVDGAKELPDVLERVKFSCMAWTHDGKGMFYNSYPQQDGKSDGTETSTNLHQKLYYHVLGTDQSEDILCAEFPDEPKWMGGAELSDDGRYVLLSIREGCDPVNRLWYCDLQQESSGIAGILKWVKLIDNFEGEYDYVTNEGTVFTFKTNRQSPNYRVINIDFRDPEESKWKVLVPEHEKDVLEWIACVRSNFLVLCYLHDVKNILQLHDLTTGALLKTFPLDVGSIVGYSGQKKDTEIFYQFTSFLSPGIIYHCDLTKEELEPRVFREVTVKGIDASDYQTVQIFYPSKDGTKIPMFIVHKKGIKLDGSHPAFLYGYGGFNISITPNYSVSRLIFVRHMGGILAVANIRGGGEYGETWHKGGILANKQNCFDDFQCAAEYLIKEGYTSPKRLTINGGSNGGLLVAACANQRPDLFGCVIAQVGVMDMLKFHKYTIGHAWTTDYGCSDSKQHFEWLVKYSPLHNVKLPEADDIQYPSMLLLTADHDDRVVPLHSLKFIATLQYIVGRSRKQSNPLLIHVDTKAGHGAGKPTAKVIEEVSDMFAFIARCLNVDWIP
Source text: as §1, §2, §3, §4, §5

Sequence of recombinant human FAP (Q12884 whole entry): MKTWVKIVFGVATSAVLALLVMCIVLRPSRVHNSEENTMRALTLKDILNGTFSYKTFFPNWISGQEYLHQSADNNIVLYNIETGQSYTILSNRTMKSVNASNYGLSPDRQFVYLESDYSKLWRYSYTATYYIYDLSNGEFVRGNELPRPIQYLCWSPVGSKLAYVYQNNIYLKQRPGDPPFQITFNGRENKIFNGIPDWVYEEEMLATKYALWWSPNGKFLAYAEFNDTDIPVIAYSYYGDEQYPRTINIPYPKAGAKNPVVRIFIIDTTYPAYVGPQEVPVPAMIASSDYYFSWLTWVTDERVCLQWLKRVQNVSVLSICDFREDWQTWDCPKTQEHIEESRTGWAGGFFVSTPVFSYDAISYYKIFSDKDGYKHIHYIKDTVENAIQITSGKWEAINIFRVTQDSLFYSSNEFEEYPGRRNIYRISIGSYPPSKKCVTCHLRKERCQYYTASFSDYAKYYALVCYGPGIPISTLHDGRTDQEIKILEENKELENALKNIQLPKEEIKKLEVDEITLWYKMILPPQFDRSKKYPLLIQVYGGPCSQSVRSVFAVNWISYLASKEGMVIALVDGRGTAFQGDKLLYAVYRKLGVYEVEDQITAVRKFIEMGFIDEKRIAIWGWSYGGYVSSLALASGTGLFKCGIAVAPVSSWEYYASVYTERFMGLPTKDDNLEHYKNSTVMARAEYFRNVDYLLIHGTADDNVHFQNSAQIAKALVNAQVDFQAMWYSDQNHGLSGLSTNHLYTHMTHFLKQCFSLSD

Q: What does the source list for `C[C@@H](NC(=O)c1ccc(F)cc1)C(=O)N1CCC[C@H]1B(O)O`?
A: FAP Selectivity, IC50(PREP)/IC50(FAP) (recombinant human FAP; pH2.0): 19; IC50 (recombinant human FAP; pH2.0): 0.22 µM; FAP Selectivity, IC50(PREP)/IC50(FAP) (recombinant human FAP; pH7.5): 22; IC50 (recombinant human FAP; pH7.5): 0.26 µM; IC50 (recombinant human PREP; pH2.0): 4.1 µM; IC50 (recombinant human PREP; pH7.5): 5.7 µM

Q: Which “FAP Selectivity, IC50(PREP)/IC50(FAP)” value (recombinant human FAP; pH2.0) does the source give for `C[C@@H](NC(=O)c1ccccc1F)C(=O)N1CCC[C@H]1B(O)O` here?
A: 5.6

Q: And the IC50 (recombinant human FAP; pH2.0)?
A: 0.39 µM

Q: What about the “FAP Selectivity, IC50(PREP)/IC50(FAP)” value (recombinant human FAP; pH7.5) of the same molecule?
A: 4.8

Q: What about the IC50 (recombinant human FAP; pH7.5) of the same molecule?
A: 0.65 µM

Q: And the IC50 (recombinant human PREP; pH2.0)?
A: 2.2 µM

Q: What about the IC50 (recombinant human PREP; pH7.5) of the same molecule?
A: 3.1 µM

Q: `C[C@@H](NC(=O)c1ccc(F)cc1F)C(=O)N1CCC[C@H]1B(O)O` was tested. Which “FAP Selectivity, IC50(PREP)/IC50(FAP)” value (recombinant human FAP; pH2.0) did it give?
A: 1.1

Q: What about the IC50 (recombinant human FAP; pH2.0) of the same molecule?
A: 0.69 µM

Q: What about the “FAP Selectivity, IC50(PREP)/IC50(FAP)” value (recombinant human FAP; pH7.5) of the same molecule?
A: 3.6

Q: And the IC50 (recombinant human FAP; pH7.5)?
A: 0.39 µM

Q: And the IC50 (recombinant human PREP; pH2.0)?
A: 0.79 µM

Q: And the IC50 (recombinant human PREP; pH7.5)?
A: 1.4 µM

Q: For `C[C@@H](NC(=O)c1c(F)c(F)c(F)c(F)c1F)C(=O)N1CCC[C@H]1B(O)O`, which “FAP Selectivity, IC50(PREP)/IC50(FAP)” value (recombinant human FAP; pH2.0) is on record?
A: 2.7

Q: What about the IC50 (recombinant human FAP; pH2.0) of the same molecule?
A: 0.45 µM

Q: And the “FAP Selectivity, IC50(PREP)/IC50(FAP)” value (recombinant human FAP; pH7.5)?
A: 4.5

Q: What about the IC50 (recombinant human FAP; pH7.5) of the same molecule?
A: 0.33 µM

Q: And the IC50 (recombinant human PREP; pH2.0)?
A: 1.2 µM

Q: And the IC50 (recombinant human PREP; pH7.5)?
A: 1.5 µM

Q: What does the source list for `C[C@@H](NC(=O)c1ccc(OCF)cc1)C(=O)N1CCC[C@H]1B(O)O`?
A: FAP Selectivity, IC50(PREP)/IC50(FAP) (recombinant human FAP; pH2.0): 8.3; IC50 (recombinant human FAP; pH2.0): 0.24 µM; FAP Selectivity, IC50(PREP)/IC50(FAP) (recombinant human FAP; pH7.5): 7.9; IC50 (recombinant human FAP; pH7.5): 0.24 µM; IC50 (recombinant human PREP; pH2.0): 2 µM; IC50 (recombinant human PREP; pH7.5): 1.9 µM

Q: With `C[C@@H](NC(=O)c1cccc(OCF)c1)C(=O)N1CCC[C@H]1B(O)O` as the molecule, how does the “FAP Selectivity, IC50(PREP)/IC50(FAP)” value (recombinant human FAP; pH2.0) read?
A: 0.37

Q: And the IC50 (recombinant human FAP; pH2.0)?
A: 0.13 µM

Q: And the “FAP Selectivity, IC50(PREP)/IC50(FAP)” value (recombinant human FAP; pH7.5)?
A: 0.41

Q: What about the IC50 (recombinant human FAP; pH7.5) of the same molecule?
A: 0.13 µM

Q: And the IC50 (recombinant human PREP; pH2.0)?
A: 0.048 µM

Q: And the IC50 (recombinant human PREP; pH7.5)?
A: 0.053 µM

Q: For `C[C@@H](NC(=O)c1cc(F)ncc1F)C(=O)N1CCC[C@H]1B(O)O`, which “FAP Selectivity, IC50(PREP)/IC50(FAP)” value (recombinant human FAP; pH2.0) is on record?
A: 14

Q: What about the IC50 (recombinant human FAP; pH2.0) of the same molecule?
A: 0.14 µM

Q: What about the “FAP Selectivity, IC50(PREP)/IC50(FAP)” value (recombinant human FAP; pH7.5) of the same molecule?
A: 16

Q: What about the IC50 (recombinant human FAP; pH7.5) of the same molecule?
A: 0.14 µM

Q: And the IC50 (recombinant human PREP; pH2.0)?
A: 2 µM

Q: What about the IC50 (recombinant human PREP; pH7.5) of the same molecule?
A: 2.3 µM

Q: Which “FAP Selectivity, IC50(PREP)/IC50(FAP)” value (recombinant human FAP; pH2.0) does the source give for `C[C@@H](NC(=O)c1cc(F)nc(F)c1)C(=O)N1CCC[C@H]1B(O)O` here?
A: 23

Q: And the IC50 (recombinant human FAP; pH2.0)?
A: 0.1 µM

Q: And the “FAP Selectivity, IC50(PREP)/IC50(FAP)” value (recombinant human FAP; pH7.5)?
A: 19

Q: And the IC50 (recombinant human FAP; pH7.5)?
A: 0.13 µM

Q: And the IC50 (recombinant human PREP; pH2.0)?
A: 2.3 µM

Q: What about the IC50 (recombinant human PREP; pH7.5) of the same molecule?
A: 2.5 µM

Q: With `C[C@@H](NC(=O)c1ccnc(F)c1F)C(=O)N1CCC[C@H]1B(O)O` as the molecule, how does the “FAP Selectivity, IC50(PREP)/IC50(FAP)” value (recombinant human FAP; pH2.0) read?
A: 15

Q: What about the IC50 (recombinant human FAP; pH2.0) of the same molecule?
A: 0.13 µM

Q: And the “FAP Selectivity, IC50(PREP)/IC50(FAP)” value (recombinant human FAP; pH7.5)?
A: 15

Q: And the IC50 (recombinant human FAP; pH7.5)?
A: 0.15 µM

Q: What about the IC50 (recombinant human PREP; pH2.0) of the same molecule?
A: 1.9 µM

Q: What about the IC50 (recombinant human PREP; pH7.5) of the same molecule?
A: 2.2 µM
